Source: patent US9617240B2 (TEIJIN PHARMA LIMITED, priority 2013, dated 2017)

target: T1, oxidase type xanthine oxidase (derived from buttermilk) (Bos taurus, UniProt P80457); test: Xanthine oxidase inhibitory activity (absorbance change at 290 nm); type: biochemical; conditions: xanthine substrate, 100 mM phosphate buffer, absorbance at 290 nm for 5 minutes; read-out: Inhibitory Activity (50% inhibitory concentration with respect to oxidase type xanthine oxidase)
T1 construct: oxidase type xanthine oxidase (derived from buttermilk, supplied by Calbiochem Novabiochem Corp.); purchased Calbiochem Novabiochem Corp; host or cells: buttermilk (natural source)
T1 sequence (P80457 whole entry): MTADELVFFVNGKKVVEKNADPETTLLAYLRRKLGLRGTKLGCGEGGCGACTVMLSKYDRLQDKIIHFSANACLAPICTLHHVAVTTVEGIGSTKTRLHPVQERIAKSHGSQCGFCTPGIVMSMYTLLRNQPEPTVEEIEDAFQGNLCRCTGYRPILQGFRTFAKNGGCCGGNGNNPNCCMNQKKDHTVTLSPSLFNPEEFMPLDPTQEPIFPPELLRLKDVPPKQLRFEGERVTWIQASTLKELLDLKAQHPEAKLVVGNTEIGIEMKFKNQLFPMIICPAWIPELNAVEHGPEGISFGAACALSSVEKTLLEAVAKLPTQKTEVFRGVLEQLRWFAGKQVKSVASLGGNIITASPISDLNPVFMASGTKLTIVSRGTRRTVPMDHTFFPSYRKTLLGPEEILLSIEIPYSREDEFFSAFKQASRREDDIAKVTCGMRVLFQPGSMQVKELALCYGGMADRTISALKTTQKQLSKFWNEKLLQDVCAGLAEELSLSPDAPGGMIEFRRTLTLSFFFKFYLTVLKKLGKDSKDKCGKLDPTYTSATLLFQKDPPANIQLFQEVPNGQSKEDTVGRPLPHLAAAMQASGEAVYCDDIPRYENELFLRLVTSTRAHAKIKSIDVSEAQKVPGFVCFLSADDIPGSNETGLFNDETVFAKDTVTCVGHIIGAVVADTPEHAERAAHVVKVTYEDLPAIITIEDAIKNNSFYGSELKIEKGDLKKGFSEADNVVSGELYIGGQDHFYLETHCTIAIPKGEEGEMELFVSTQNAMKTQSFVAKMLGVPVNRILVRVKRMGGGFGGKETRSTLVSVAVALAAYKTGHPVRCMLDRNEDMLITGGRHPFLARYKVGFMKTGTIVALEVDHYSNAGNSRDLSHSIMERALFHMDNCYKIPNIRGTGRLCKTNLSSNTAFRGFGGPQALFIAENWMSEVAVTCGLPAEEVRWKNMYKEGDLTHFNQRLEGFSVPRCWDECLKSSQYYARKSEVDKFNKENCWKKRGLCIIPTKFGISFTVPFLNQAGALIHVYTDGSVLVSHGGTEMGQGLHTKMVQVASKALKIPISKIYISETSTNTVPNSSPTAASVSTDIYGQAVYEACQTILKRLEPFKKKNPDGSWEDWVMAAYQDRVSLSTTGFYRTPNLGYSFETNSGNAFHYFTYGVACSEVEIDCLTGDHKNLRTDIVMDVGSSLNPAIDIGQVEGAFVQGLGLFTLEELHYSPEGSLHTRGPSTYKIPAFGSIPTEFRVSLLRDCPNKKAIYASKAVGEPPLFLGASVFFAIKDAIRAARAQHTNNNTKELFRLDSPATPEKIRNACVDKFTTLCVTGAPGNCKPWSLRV
Method: The xanthine oxidase inhibitory activity was measured for the compounds synthesized according to the above Examples.
After a test compound was dissolved in DMSO (manufactured by Sigma Co.) so that the concentration is 20 mM, the test compound was prepared and used at a desired concentration at the time of use.
The evaluation of the xanthine oxidase inhibitory activity of the compounds of the present invention was conducted by partially modifying the method described in the literature (Method Enzymatic Analysis, 1, 521-522, 1974). The present evaluation is based on the oxidase type xanthine oxidase inhibitory activity evaluation. That is, a xanthine (manufactured by Sigma Co.) solution prepared at 10 mM in advance using a 20 mM sodium hydroxide solution was adjusted to 30 μM using a 100 mM phosphate buffer solution, and 75 μL/well of each solution was added into a 96-well plate. Aliquots (1.5 μL/well) of each test sample, which was diluted with DMSO so that the concentration is 100 times the final concentration, were added into a 96-well plate, and after mixing, the absorbance at 290 nm was measured by a microplate reader SPECTRA MAX Plus 384 (manufactured by Molecular Devices, LLC). Subsequently, oxidase type xanthine oxidase (derived from buttermilk, supplied by Calbiochem Novabiochem Corp.) was prepared at 30.6 mU/mL using a 100 mM phosphate buffer solution and 73.5 μL/well of each solution was added. Immediately after mixing, the change in absorbance at 290 nm was measured for 5 minutes. The enzyme activity when DMSO was used instead of a test compound solution was defined as 100%, the inhibitory rate of the test compounds was calculated and the 50% inhibitory concentration with respect to oxidase type xanthine oxidase was calculated by fitting to the dose-response curve.
Note that the symbols (+, ++, +++) in the table represent inhibitory activity values as shown below.

Row | IC50 [nM] | SMILES
1 | ≥ 10 | N#Cc1cc(-n2cc(C(=O)O)cn2)ncc1-c1ccncc1 [Compound 62, 1-[4-cyano-5-(pyridin-4-yl)pyridin-2-yl]-1H-pyrazole-4-carboxylic acid]
2 | 5 to 10 | CCOc1cccc(F)c1-c1cnc(-n2cc(C(=O)O)cn2)cc1C#N [Compound 17, 1-[4-cyano-5-(2-ethoxy-6-fluorophenyl)pyridin-2-yl]-1H-pyrazole-4-carboxylic acid]
3 | 1 to 5 | COc1cc(F)ccc1-c1cnc(-n2cc(C(=O)O)cn2)cc1C#N [Compound 50, 1-[4-cyano-5-(4-fluoro-2-methoxyphenyl)pyridin-2-yl]-1H-pyrazole-4-carboxylic acid]
4 | 1 to 5 | Cc1ccc(-c2cnc(-n3cc(C(=O)O)cn3)cc2C#N)cc1F [Compound 39, 1-[4-cyano-5-(3-fluoro-4-methylphenyl)pyridin-2-yl]-1H-pyrazole-4-carboxylic acid]
5 | ≥ 10 | N#Cc1cc(-n2cc(C(=O)O)cn2)cnc1-c1ccccc1F [Compound 76, 1-[5-cyano-6-(2-fluorophenyl)pyridin-3-yl]-1H-pyrazole-4-carboxylic acid]
6 | 1 to 5 | N#Cc1cc(-n2cc(C(=O)O)cn2)ncc1-c1ccc(O)cc1 [Compound 16, 1-[4-cyano-5-(4-hydroxyphenyl)pyridin-2-yl]-1H-pyrazole-4-carboxylic acid]
7 | 1 to 5 | CCOc1cccc(-c2cnc(-n3cc(C(=O)O)cn3)cc2C#N)c1 [Compound 30, 1-[4-cyano-5-(3-ethoxyphenyl)pyridin-2-yl]-1H-pyrazole-4-carboxylic acid]
8 | ≥ 10 | Cc1ccc(F)c(-c2ncc(-n3cc(C(=O)O)cn3)cc2C#N)c1 [Compound 79, 1-[5-cyano-6-(2-fluoro-5-methylphenyl)pyridin-3-yl]-1H-pyrazole-4-carboxylic acid]
9 | ≥ 10 | N#Cc1cc(-n2cc(C(=O)O)cn2)cnc1-c1ccccc1 [Compound 75, 1-(5-cyano-6-phenylpyridin-3-yl)-1H-pyrazole-4-carboxylic acid]
10 | 5 to 10 | N#Cc1nc(-n2cc(C(=O)O)cn2)ccc1-c1ccccc1F [Compound 86, 1-[6-cyano-5-(2-fluorophenyl)pyridin-2-yl]-1H-pyrazole-4-carboxylic acid]
11 | ≥ 10 | Cc1nn(-c2cc(C#N)c(-c3ccccc3)cn2)cc1C(=O)O [Compound 26, 1-(4-cyano-5-phenylpyridin-2-yl)-3-methyl-1H-pyrazole-4-carboxylic acid]
12 | 1 to 5 | CC(C)c1ccc(-c2cnc(-n3cc(C(=O)O)cn3)cc2C#N)cc1 [Compound 47, 1-[4-cyano-5-[4-(propane-2-yl)phenyl]pyridin-2-yl}-1H-pyrazole-4-carboxylic acid]
13 | 1 to 5 | N#Cc1cc(-n2cc(C(=O)O)c(N)n2)ncc1-c1ccc(F)cc1F [Compound 105, 3-amino-1-[4-cyano-5-(2,4-difluorophenyl)pyridin-2-yl]-1H-pyrazole-4-carboxylic acid]
14 | 5 to 10 | N#Cc1cc(-n2cc(C(=O)O)cn2)ncc1-c1cccc(F)c1 [Compound 11, 1-[4-cyano-5-(3-fluorophenyl)pyridin-2-yl]-1H-pyrazole-4-carboxylic acid]
15 | ≥ 10 | N#Cc1cc(-n2cc(C(=O)O)cn2)ncc1-c1cncc(F)c1 [Compound 60, 1-[4-cyano-5-(5-fluoropyridin-3-yl)pyridin-2-yl]-1H-pyrazole-4-carboxylic acid]
16 | 1 to 5 | N#Cc1cc(-n2cc(C(=O)O)cn2)ncc1-c1ccc(F)cc1F [Compound 32, 1-[4-cyano-5-(2,4-difluorophenyl)pyridin-2-yl]-1H-pyrazole-4-carboxylic acid]
17 | 5 to 10 | CC(C)COc1cccc(-c2cnc(-n3cc(C(=O)O)cn3)cc2C#N)c1 [Compound 56]
18 | 1 to 5 | COc1ccc(F)c(-c2cnc(-n3cc(C(=O)O)c(N)n3)cc2C#N)c1 [Compound 107, 3-amino-1-[4-cyano-5-(2-fluoro-5-methoxyphenyl)pyridine-2-yl]-1H-pyrazole-4-carboxylic acid]
